We go through two compounds from patent publication US11753407B2, “Compounds for treating spinal muscular atrophy” (PTC Therapeutics, Inc., priority 2012, dated 2023).

A short description of assay [1]: Body weight of neonatal Δ7 SMA mice. Conditions: neonatal SMA Δ7 homozygous knockout mice. The format is in vivo. How it is done:
The change in body weight of neonatal SMA mice is used to determine whether treatment with a test compound improves body weight.
Protocol. SMA Δ7 homozygous knockout mice are dosed intraperitoneally (IP) with test compound or vehicle (100% DMSO) QD from PND 3 until the dose regimen is switched to an oral dose BID in 0.5% hydroxypropylmethyl cellulose (HPMC) with 0.1% Tween-80 at a dose 3.16-fold higher than the dose used for IP. Body weights of SMA Δ7 mice treated with test compound or vehicle and age matched heterozygous mice are recorded every day.

In assay [2] the test system is SMN2 mRNA in GM03813 SMA patient cells. In words: Endogenous SMN2 mRNA end-point semi-quantitative RT-PCR splicing assay in cultured cells. Type of assay: cell-based, human. The following applies: Type 1 SMA patient fibroblasts, increasing concentrations, 24 hr, end-point RT-PCR (FIG. 5). How it is done:
The endpoint reverse transcription-PCR splicing assay is used to visualize and quantify the levels of the full length and Δ7 SMN2 mRNA in primary cells and cell lines containing the SMN2 gene treated with a test compound.
Protocol. GM03813 SMA patient cells (5,000 cells/well) are seeded in 200 μL of cell culture medium (DMEM plus 10% FBS) in 96-well flat-bottom plates and the plate is immediately swirled to ensure proper dispersal of cells, forming an even monolayer of cells. Cells are allowed to attach for at least 4-6 hrs. Test compounds are serially diluted 3.16-fold in 100% DMSO to generate a 7-point concentration curve. A solution of test compound (1 μL, 200× in DMSO) is added to each test well and 1 μL DMSO is added to each control well. The plate is incubated for 24 hrs in a cell culture incubator (37° C., 5% CO2, 100% relative humidity). The cells are then lysed in Cells-To-Ct lysis buffer and the lysate is stored at −80° C.
SMN FL and Δ7 mRNA are identified using the following primers in Table 6. These primers hybridize to a nucleotide sequence in exon 6 (SMN Forward C, SEQ ID NO. 11) (nucleotide 43 to nucleotide 63) and exon 8 (SMN Reverse C, SEQ ID NO. 12) (nucleotide 51 to nucleotide 73) common to human SMN1 and SMN2 mRNA. Since the SMA patient cells used in Example 4 contain only the SMN2 gene, RT-PCR can visualize and quantify only SMN2 full-length and SMN2 Δ7 mRNA.
To synthesize cDNA, 5 μL of lysate, 4 μL of 5× iScript reaction mix, 1 μL of reverse transcriptase, and 10 μL of water are combined and incubated 5 min at 25° C. followed by 30 min at 42° C., followed by 5 min at 85° C. The cDNA solution is stored at −20° C.
To perform endpoint PCR, 5 μL of cDNA, 0.2 μL of 100 μM forward primer, 0.2 μL of 100 μM reverse primer, and 22.5 μL of polymerase super mix are combined in a 96 well semiskirted PCR plate. PCR is carried out at the following temperatures for the indicated time: Step 1: 94° C. (2 min), Step 2: 94° C. (30 sec), Step 3: 55° C. (30 sec), Step 4: 68° C. (1 min), then repeat Steps 2 to 4 for a total of 33 cycles, then hold at 4° C.
10 μL of each PCR sample is electrophoretically separated on a 2% agarose E-gel for 14 minutes stained with double-stranded DNA (dsDNA) staining reagents (e.g., ethidium bromide) and visualized using a gel imager.

`COc1ccc(-c2cc(=O)n3cc(N4CCNCC4)ccc3n2)cc1OC` [Cpd 6, 2-(3,4-dimethoxyphenyl)-7-(piperazin-1-yl)-4H-pyrido[1,2-a]pyrimidin-4-one]: the body weight result in assay [1] (IP QD PND 3 to PND 30, then orally BID from PND 31 until study end (FIG. 13a)) is listed as “improved compared to vehicle treated mice”. In assay [2], the “SMN2 FL mRNA” value is “progressively more SMN2 FL mRNA” and the “SMN2 Δ7 mRNA” value is reported as “less SMN2 Δ7 mRNA”.
`Cc1cn2nc(-c3cc(=O)n4cc(N5CCN(C)CC5)ccc4n3)cc2c(C)n1` [Cpd 170, 2-(4,6-dimethylpyrazolo[1,5-a]pyrazin-2-yl)-7-(4-methylpiperazin-1-yl)-4H-pyrido[1,2-a]pyrimidin-4-one]: the body weight result in assay [1] (IP QD PND 3 to PND 23, then orally BID from PND 24 until study end (FIG. 13b)) is on record as “improved compared to vehicle treated mice”. Further, in assay [2], the “SMN2 FL mRNA” value was “progressively more SMN2 FL mRNA” and the “SMN2 Δ7 mRNA” value is “less SMN2 Δ7 mRNA”.
